Laboratory results taken from patent US4542137A, “Alkylaminodesoxy-1.4;3.6-dianhydrohexitol nitrates substituted by purine bases and pharmaceutical compositions” (priority 1980, dated 1985).

Tested on: mongrel dogs
Assay: circulatory pharmacological effectiveness on narcotised dogs, intravenous
Type: in vivo, dog
[1] = dog i.v. ISDN/9c 1, 1d 0.5 mg/kg, 40 min
[2] = dog i.v. ISDN/9c 1, 1d 0.5 mg/kg, 50 min
[3] = dog i.v. ISDN/9c 1, 1d 0.5 mg/kg, 60 min
[4] = dog i.v. ISDN/9c 1, 1d 0.5 mg/kg, 90 min
[5] = dog i.v. ISDN/9c 1, 1d 0.5 mg/kg, 120 min
[6] = dog i.v. ISDN/9c 1, 1d 0.5 mg/kg, 150 min
[7] = dog i.v. ISDN/9c 1, 1d 0.5 mg/kg, 180 min
[8] = dog i.v., before administration (v)

Compound: CN(CCCn1cnc2c1c(=O)n(C)c(=O)n2C)[C@H]1CO[C@H]2[C@@H]1OC[C@@H]2O[N+](=O)[O-] [Example 9c, 5-[N-Methyl-N-(3-theophyllin-7-ylpropyl)-amino]-5-desoxy-1.4;3.6-dianhydro-L-iditol 2-nitrate]
- BFFem: blood flow in the A. femoralis referred to 20 kg body weight [1]: 44.2 mL/min
- HLL: heart capacity left, referred to 20 kg body weight [1]: 0.60 W
- HLR: heart capacity right, referred to 20 kg body weight [1]: 63.2 mW
- HZV: heart minute volume, referred to 20 kg body weight [1]: 2.71 L/min
- LVEDP: end diastolic pressure in the left ventricle [1]: 5.62 mm.Hg
- SV: beat volume, referred to 20 kg body weight [1]: 24.9 mL
- WAP: pulmonalis resistance, referred to 20 kg body weight [1]: 0.30 U
- WFem: moralis resistance, referred to 20 kg body weight [1]: 0.32 KU
- WTP: total peripheral resistance, referred to 20 kg body weight [1]: 5.05 U
- dp/dt: rate of pressure increase in the left ventricle [1]: 2203.1 mm.Hg/sec
- APdiast: diastolic aorta pressure [2]: 88.2 mm.Hg
- APsyst: systolic aorta pressure [2]: 142.5 mm.Hg
- BFFem: blood flow in the A. femoralis referred to 20 kg body weight [2]: 26.6 mL/min
- HF: heart frequency [2]: 105.5
- HLL: heart capacity left, referred to 20 kg body weight [2]: 0.61 W
- HLR: heart capacity right, referred to 20 kg body weight [2]: 61.7 mW
- HZV: heart minute volume, referred to 20 kg body weight [2]: 2.68 L/min
- LVEDP: end diastolic pressure in the left ventricle [2]: 6.19 mm.Hg
- SV: beat volume, referred to 20 kg body weight [2]: 25.5 mL
- WFem: moralis resistance, referred to 20 kg body weight [2]: 0.31 KU
- WTP: total peripheral resistance, referred to 20 kg body weight [2]: 5.24 U
- dp/dt: rate of pressure increase in the left ventricle [2]: 2165.6 mm.Hg/sec
- APdiast: diastolic aorta pressure [3]: 88.2 mm.Hg
- APsyst: systolic aorta pressure [3]: 144.7 mm.Hg
- BFFem: blood flow in the A. femoralis referred to 20 kg body weight [3]: 45.8 mL/min
- HF: heart frequency [3]: 103.2
- HLL: heart capacity left, referred to 20 kg body weight [3]: 0.59 W
- HLR: heart capacity right, referred to 20 kg body weight [3]: 59.1 mW
- HZV: heart minute volume, referred to 20 kg body weight [3]: 2.59 L/min
- SV: beat volume, referred to 20 kg body weight [3]: 25.1 mL
- WAP: pulmonalis resistance, referred to 20 kg body weight [3]: 0.27 U
- WFem: moralis resistance, referred to 20 kg body weight [3]: 0.32 KU
- WTP: total peripheral resistance, referred to 20 kg body weight [3]: 5.48 U
- dp/dt: rate of pressure increase in the left ventricle [3]: 2109.4 mm.Hg/sec
- APdiast: diastolic aorta pressure [4]: 90.9 mm.Hg
- APsyst: systolic aorta pressure [4]: 148.1 mm.Hg
- BFFem: blood flow in the A. femoralis referred to 20 kg body weight [4]: 41.7 mL/min
- HF: heart frequency [4]: 98.0
- HLL: heart capacity left, referred to 20 kg body weight [4]: 0.56 W
- HLR: heart capacity right, referred to 20 kg body weight [4]: 59.2 mW
- HZV: heart minute volume, referred to 20 kg body weight [4]: 2.42 L/min
- SV: beat volume, referred to 20 kg body weight [4]: 24.8 mL
- WAP: pulmonalis resistance, referred to 20 kg body weight [4]: 0.33 U
- WFem: moralis resistance, referred to 20 kg body weight [4]: 0.36 KU
- WTP: total peripheral resistance, referred to 20 kg body weight [4]: 6.00 U
- dp/dt: rate of pressure increase in the left ventricle [4]: 1987.5 mm.Hg/sec
- APdiast: diastolic aorta pressure [5]: 90.9 mm.Hg
- APsyst: systolic aorta pressure [5]: 150.0 mm.Hg
- BFFem: blood flow in the A. femoralis referred to 20 kg body weight [5]: 39.9 mL/min
- HF: heart frequency [5]: 96.7
- HLL: heart capacity left, referred to 20 kg body weight [5]: 0.55 W
- HLR: heart capacity right, referred to 20 kg body weight [5]: 60.8 mW
- HZV: heart minute volume, referred to 20 kg body weight [5]: 2.39 L/min
- LVEDP: end diastolic pressure in the left ventricle [5]: 7.73 mm.Hg
- SV: beat volume, referred to 20 kg body weight [5]: 24.7 mL
- WAP: pulmonalis resistance, referred to 20 kg body weight [5]: 0.35 U
- WFem: moralis resistance, referred to 20 kg body weight [5]: 0.38 KU
- WTP: total peripheral resistance, referred to 20 kg body weight [5]: 6.07 U
- dp/dt: rate of pressure increase in the left ventricle [5]: 1837.5 mm.Hg/sec
- APdiast: diastolic aorta pressure [6]: 88.7 mm.Hg
- APsyst: systolic aorta pressure [6]: 148.7 mm.Hg
- BFFem: blood flow in the A. femoralis referred to 20 kg body weight [6]: 39.0 mL/min
- HF: heart frequency [6]: 98.2
- HLL: heart capacity left, referred to 20 kg body weight [6]: 0.54 W
- HLR: heart capacity right, referred to 20 kg body weight [6]: 64.4 mW
- HZV: heart minute volume, referred to 20 kg body weight [6]: 2.38 L/min
- LVEDP: end diastolic pressure in the left ventricle [6]: 7.87 mm.Hg
- SV: beat volume, referred to 20 kg body weight [6]: 24.3 mL
- WAP: pulmonalis resistance, referred to 20 kg body weight [6]: 0.40 U
- WFem: moralis resistance, referred to 20 kg body weight [6]: 0.37 KU
- WTP: total peripheral resistance, referred to 20 kg body weight [6]: 5.92 U
- dp/dt: rate of pressure increase in the left ventricle [6]: 1809.4 mm.Hg/sec
- APdiast: diastolic aorta pressure [7]: 87.2 mm.Hg
- APsyst: systolic aorta pressure [7]: 148.1 mm.Hg
- BFFem: blood flow in the A. femoralis referred to 20 kg body weight [7]: 42.8 mL/min
- HF: heart frequency [7]: 100.0
- HLL: heart capacity left, referred to 20 kg body weight [7]: 0.55 W
- HLR: heart capacity right, referred to 20 kg body weight [7]: 67.5 mW
- HZV: heart minute volume, referred to 20 kg body weight [7]: 2.47 L/min
- LVEDP: end diastolic pressure in the left ventricle [7]: 7.87 mm.Hg
- SV: beat volume, referred to 20 kg body weight [7]: 24.8 mL
- WAP: pulmonalis resistance, referred to 20 kg body weight [7]: 0.41 U
- WFem: moralis resistance, referred to 20 kg body weight [7]: 0.33 KU
- WTP: total peripheral resistance, referred to 20 kg body weight [7]: 5.61 U
- dp/dt: rate of pressure increase in the left ventricle [7]: 1743.7 mm.Hg/sec
- APdiast: diastolic aorta pressure [8]: 78.7 mm.Hg
- APsyst: systolic aorta pressure [8]: 147.2 mm.Hg
- BFFem: blood flow in the A. femoralis referred to 20 kg body weight [8]: 48.0 mL/min
- HF: heart frequency [8]: 102.5
- HLL: heart capacity left, referred to 20 kg body weight [8]: 0.56 W
- HLR: heart capacity right, referred to 20 kg body weight [8]: 63.08 mW
- HZV: heart minute volume, referred to 20 kg body weight [8]: 2.62 L/min
- PAP: average pressure in the A. pulmonalis [8]: 13.6 mm.Hg
- WFem: moralis resistance, referred to 20 kg body weight [8]: 0.29 KU
- WTP: total peripheral resistance, referred to 20 kg body weight [8]: 5.15 U
- dp/dt: rate of pressure increase in the left ventricle [8]: 1837.5 mm.Hg/sec
- BFFem: blood flow in the A. femoralis referred to 20 kg body weight (dog, in vivo): 41.9 mL/min
- PRV: pressure in the right atrium (dog, in vivo, iv): 3.0
- LVEDP: end diastolic pressure in the left ventricle (iv): 7.60 mm.Hg
- SV: beat volume, referred to 20 kg body weight (iv): 25.9 mL
- WAP: pulmonalis resistance, referred to 20 kg body weight (iv): 0.29 U
